Test results published in US20260070886A1, “QUINOLINE PIPERAZINE DERIVATIVES, PHARMACEUTICAL COMPOSITION AND USES THEREOF” (priority 2022, published 2026).
pIC50: −log10 of the molar value.

Assays:
A549 cells = test: Cell cytotoxicity assay, A549 cells; assay type: cell-based; details: Homo sapiens, 72 hours, percent cytotoxicity against DMSO control; for cytotoxicity at 1 µM: 1 μM compound, read-out: Cell toxicity A549 cells 1 μM; for cytotoxicity at 10 µM: 10 μM compound, read-out: Cell toxicity A549 cells 10 μM
Text: (§1) The following human derived non-small cell lung cancer cell lines were used to test the efficiency of the compounds to cause cell death and assess the anti-cancer properties of said compounds: 1. A549 cells: adenocarcinomic human alveolar basal epithelial cells; these cells are used as models for the study of lung cancer and the development of drug therapies against it • 2. NCI-H-460 cells are also human lung cancer cells, and • 3. NCI-H-522 cells are also human lung cancer cells.
(§2) 500 cells/well/30 μL were seeded in a 384 well cell culture plate. Incubated over night at 37° C., 5% CO2 in cell culture incubator. 10 μL of 4× compound was added to the plates, and incubated for 72 hours at 37° C., 5% CO2 in cell culture incubator. Assay DMSO control were included for 0% cytotoxicity control. Assay was terminated by addition of 10 μL of the reagent CTG 2.0 detection reagent #G9242. Plates were incubated for 20 minute incubation at room temperature with shaking Plate were read in Envision. Ultrasensitive luminescence and data was analyzed and percent cytotoxicity of compounds was determined against DMSO control.
(§3) All the compounds, A1-A116, were tested for cell toxicity using said non-small cell lung cancer cell lines using the above described method.

NCI-H-460 cells = test: Cell cytotoxicity assay, NCI-H-460 cells; assay type: cell-based; details: Homo sapiens, NCI-H460, 72 hours, percent cytotoxicity against DMSO control; for cytotoxicity at 1 µM: 1 μM compound, read-out: Cell toxicity NCI-H-460 cells 1 μM; for cytotoxicity at 10 µM: 10 μM compound, read-out: Cell toxicity NCI-H-460 cells 10 μM
Text: as §1, §2, §3

NCI-H-522 cells = test: Cell cytotoxicity assay, NCI-H-522 cells; assay type: cell-based; details: Homo sapiens, NCI-H522, 72 hours, percent cytotoxicity against DMSO control; for cytotoxicity at 1 µM: 1 μM compound, read-out: Cell toxicity NCI-H-522 cells 1 μM; for cytotoxicity at 10 µM: 10 μM compound, read-out: Cell toxicity NCI-H-522 cells 10 μM
Text: as §1, §2, §3

A549 = test: CellTiter Glo assay, A549; assay type: cell-based; details: Homo sapiens, 72 hours, 10 point DRC, 100 μM top, read-out: Cytotoxicity IC50 A549
Text: as §1
(§4) Cells were cultured and maintained in F12K+10% FBS+1× anti-anti media and RPMI+10% FBS+1× anti-anti media. Cells were trypsinised and expanded to ensure that cells are not over-confluent and are in log growth phase. On day 0, 500 cells/well were seeded in 30 μl media using cell culture treated white flat bottom 384 well plate, centrifuged at 40×g for 10 seconds and incubated overnight in […], 5% CO2 incubator. On day 1, 4× concentration of compounds were prepared in complete media, 10 μl was added to cells, centrifuged at 40×g for 10 seconds and incubated 72 hours in 37° C., 5% CO2 incubator. Compounds tested: 100 μM top, 3 fold dilution and 10 point DRC in triplicate. Final DMSO concentration was maintained at 0.5% for all compound. No compound/DMSO was used as a control. On day 4 (72 hours post treatment) plates were brought to room temperature for 10 min 10 μl of CellTiter Glo reagent was added to each well and placed the plates on an orbital shaker for 10 minutes at room temperature. Luminescence signal was read on the Envision plate reader using the ultra-sensitive luminescence protocol. Data was plotted and analyzed using the below formula: DMSO control treated cells RLU considered as 100% cell viability.
(§5) Table 7 provides the IC50 values for cell toxicity of most efficient derivatives of Formula A.

NCI-H-460 = test: CellTiter Glo assay, NCI-H-460; assay type: cell-based; details: Homo sapiens, NCI-H460; 72 hours, 10 point DRC, 100 μM top; read-out: Cytotoxicity IC50 NCI-H-460
Text: as §1, §4, §5

NCI-H-522 = test: CellTiter Glo assay, NCI-H-522; assay type: cell-based; details: Homo sapiens, NCI-H522; 72 hours, 10 point DRC, 100 μM top; read-out: Cytotoxicity IC50 NCI-H-522
Text: as §1, §4, §5

[1] = test system: Non-small cell lung cancer cell lines; test: Cell toxicity assay, overall statement; assay type: cell-based; details: summary in words of Table 6
Text: as §1, §2, §3
These selected derivatives of Formula A were further tested to confirm their efficiency as anti-cancer compounds.

[2] = test system: Non-small cell lung cancer cell lines; test: Cell Titer Glo assay, overall statement; assay type: cell-based, human; details: summary in words
Text: as §1, §4, §5

Structure (SMILES) | cytotoxicity at 1 µM (A549 cells) [%] | cytotoxicity at 10 µM (A549 cells) [%] | cytotoxicity at 1 µM (NCI-H-460 cells) [%] | cytotoxicity at 10 µM (NCI-H-460 cells) [%] | cytotoxicity at 1 µM (NCI-H-522 cells) [%] | cytotoxicity at 10 µM (NCI-H-522 cells) [%] | pIC50 (A549) | pIC50 (NCI-H-460) | pIC50 (NCI-H-522) | activity against Non-small cell lung cancer (cell toxicity) [1] | efficiency in cell toxicity against Non-small cell lung cancer cell lines [2]
COc1cc(Nc2nc(C)cc(N3CCN(c4ccnc5cc(F)ccc45)CC3)n2)cc(OC)c1 [Compound A48, N-(3,5-dimethoxyphenyl)-4-(4-(7-fluoroquinolin-4-yl)piperazin-1-yl)-6-methylpyrimidin-2-amine] | 57 | 98 | 0 | 66 | 16 | 71 | 6.09 | 5.74 | 5.49 | active | best efficiency
COc1cc(Nc2nc(N3CCN(c4ccnc5cc(F)ccc45)CC3)cc(C(F)(F)F)n2)cc(OC)c1 [Compound A49, N-(3,5-dimethoxyphenyl)-4-(4-(7-fluoroquinolin-4-yl)piperazin-1-yl)-6-(trifluoromethyl)pyrimidin-2-amine] | 64 | 99 | 3 | 59 | 45 | 77 | 6.24 | 6.07 | 5.74 | active | best efficiency
